Legend:
[1] = tested on: normal human epidermal keratinocytes (NHEKs); experiment: Total protease activity of NHEK conditioned medium (BODIPY FL casein); format: cell-based; conditions: 800 μg ml applied to 24-hour posttreatment conditioned medium
Experimental: (§1) Culture of primary human keratinocytes. Neonatal NHEKs (ThermoFisher Scientific, Waltham, MA) were cultured in EpiLife medium (ThermoFisher Scientific) supplemented with 1× EpiLife defined growth supplement (ThermoFisher Scientific), 60 μM CaCl2, and 1× antibiotic-antimycotic (PSA; 100 U/ml penicillin, […] streptomycin, 250 ng/ml amphotericin B; ThermoFisher Scientific) at 37° C., 5% CO2. For experiments, NHEKs were grown to 70% confluency followed by differentiation in high calcium EpiLife medium (2 mM CaCl2) for 48 hours before treatment with bacteria sterile filtered supernatant. […] For bacterial supernatant treatments, differentiated NHEKs were treated with sterile filtered bacterial supernatant at 5% by volume to EpiLife medium. NHEKs were only used for experiments between passages 3 and 5.
(§2) Protease activity assays. […] Relative fluorescent intensity was analyzed with a SpectraMAX Gemini EM fluorometer (ThermoFisher Scientific) at RTwith readings every 2 hours for 24 hours. BODIPY FL casein plates were read at ex: 485 nm and em: 530 nm. Elastin-like and MMP substrate plates were read at ex: 485 nm and em: 515 nm. Trypsin-like substrate plates were read at ex: 354 nm and em: 435 nm.

[2] = tested on: KLK mRNA expression in NHEKs; experiment: KLK mRNA expression in NHEKs by quantitative real-time PCR; format: cell-based, human; conditions: synthetic peptide, normalized to GAPDH
Experimental: Quantitative real-time PCR. RNA was isolated from NHEKs using Purelink RNA isolation columns (ThermoFisher Scientific) according to the manufacturer's instructions. RNA was quantified using a Nanodrop spectrophotometer (ThermoFisher Scientific), and 500 ng of RNA was reverse-transcribed using the iScript cDNA synthesis kit (Bio-Rad, Irvine, CA). Quantitative real-time PCR reactions were ran on a CFX96 real-time detection system (Bio-Rad) using gene-specific primers and TaqMan probes (ThermoFisher Scientific).
RNA isolation and quantitative real-time PCR. All RNA was isolated using the Purelink RNA isolation kit according to manufacturer's instructions (Thermo Fisher Scientific). For NHEKs, 350 μL RNA lysis buffer (with 1% β-mercaptoethanol) was added directly to cells. For mouse tissue, 0.5 cm^2 full thickness skin was bead beat (2× 30 sec, 2.0 mm zirconia bead) in 750 μL of RNA lysis buffer with 5 minutes on ice in between. Tissue was than centrifuged (10 min, 13,000 RPM, 4° C.), followed by adding 350 μL of clear lysate to 70% EtOH and column based isolation of RNA. […] After RNA isolation, samples were quantified with a Nanodrop (ThermoFisher Scientific), and 500 ng of RNA was reverse-transcribed using the iScript cDNA synthesis kit (Bio-Rad). qPCR reactions were ran on a CFX96 Real-Time Detection System (Bio-Rad). […]

[3] = tested on: normal human epidermal keratinocytes (NHEKs); experiment: Trypsin-like activity of NHEK conditioned medium (Boc-Val-Pro-Arg-AMC substrate); format: cell-based
Experimental: as §1
as §2, with “435 nm. […]” for “435 nm.”
Trypsin Activity Analysis. […] Relative fluorescent intensity (ex: 354 nm, em: 435 nm) was analyzed with a SpectraMAX Gemini EM fluorometer (Thermo Fisher Scientific). […]

[4] = tested on: normal human epidermal keratinocytes (NHEKs); experiment: RNA-Seq transcriptional profiling of NHEKs; format: cell-based; conditions: synthetic peptide, 24 h
Experimental: RNA sequencing. RNA was submitted to the University of California, San Diego (UCSD) genomic core facility for library preparation and sequencing. TruSeq mRNA Library Prep Kit (Illumina) was used for library prep followed by high-throughput sequencing on a HiSeq 2500 sequencer (Illumina). Data was analyzed using Partek Flow and Partek Genomics Suite software and gene ontology analysis was performed using the PANTHER classification system (http[://]pantherdb.org).

Row | Substance | effect of serine protease inhibitor on S. aureus-induced total protease activity [1] | dose and time dependence of KLK6 mRNA expression in NHEKs [2] | dose and time dependence of trypsin activity stimulation in NHEKs ([3]; synthetic peptide) | trypsin activity in NHEKs treated with synthetic PSM peptide ([3]; synthetic peptide added to NHEKs for up to 24 h) | transcriptional profile (RNA-Seq) of NHEKs [4]
1 | aprotinin | confirmed that this activity was due to serine proteases | – | – | – | –
2 | f-MEFVAKLFKFFKDLLGKFLGNN [PSMα3] | – | dose and time dependent manner | dose and time dependent manner | strongest PSMα trypsin activity inducers | broad effect on expression of genes related to the skin barrier
